Columns and labels:
[1] = target: T1, rat lactate dehydrogenase A (rLDHA) (Rattus norvegicus, UniProt P04642); assay: SPR (BIAcore T200), steady-state affinity; kinetic fit gives Kd […]; type: binding
T1 construct: gene Ldha; amino acids 1–332 of full-length wild type, untagged, biotinylated

[2] = system: CC(=O)C(=O)O; assay: purified protein; conditions: NADH

| Compound | Kd [1] [µM] | Km [2] [mM] |
| --- | --- | --- |
| NC(=O)C1=CN([C@@H]2O[C@H](COP(=O)(O)OP(=O)(O)OC[C@H]3O[C@@H](n4cnc5c(N)ncnc54)[C@H](O)[C@@H]3O)[C@@H](O)[C@H]2O)C=CC1 [NADH] | 6.4 ± 0.3 | – |
| rat lactate dehydrogenase A (rLDHA) (Rattus norvegicus) | – | 0.53 ± 0.08 |

Reference: publication PMC4696747 (PLoS ONE, 2015)
